Results on 21 compounds are retold here after ChEMBL document CHEMBL6078645, “Expanding the Solvent/Protein Region Occupation of the Non-Nucleoside Reverse Transcriptase Inhibitor Binding Pocket for Improved Broad-Spectrum Anti-HIV-1 Efficacy: from Rigid Phenyl-Diarylpyrimidines to Flexible Hydrophilic Piperidine-Diarylpyrimidines” (J Med Chem, 2024).

For data set [1], the target named is T1, Human immunodeficiency virus type 1 reverse transcriptase (Human immunodeficiency virus 1, UniProt Q72547). Description: Inhibition of HIV-1 reverse transcriptase.
For data set [2], the system named is Human immunodeficiency virus 1. Kind of data set: Antiviral activity against HIV-1 harboring Y188L mutant infected in human MT4 cells assessed as protection against virus-induced cytopathic effect incubated for 5 days by MTT assay. Type of data set: functional, organism-based. The settings on record: Human immunodeficiency virus 1, MT4, 120 h. For orientation: Protection from cytopathic effect is a common read-out in antiviral testing.

Data set [3] has as its system Human immunodeficiency virus 1. Description: Antiviral activity against HIV-1 harboring F227L/V106A double mutant infected in human MT4 cells assessed as protection against virus-induced cytopathic effect incubated for 5 days by MTT assay. It counts as functional, organism-based. The settings on record: Human immunodeficiency virus 1, MT4, 120 h.
For data set [4], the system named is Human immunodeficiency virus 1. Description: Antiviral activity against HIV-1 harboring RES056 mutant infected in human MT4 cells assessed as protection against virus-induced cytopathic effect incubated for 5 days by MTT assay. Type of data set: functional, organism-based. The settings on record: Human immunodeficiency virus 1, MT4, 120 h.
A short description of data set [5]: Cytotoxicity against human MT4 cells assessed as reduction in cell viability incubated for 5 days by MTT assay. It counts as toxicity, cell-based. The settings on record: MT4 cells, time 5 day. Background: Tetrazolium dyes change colour on reduction, which living cells bring about.
The nature of data set [6]: Selectivity index, ratio of CC50 for cytotoxicity against human MT4 cells assessed as reduction in cell viability to EC50 for antiviral activity against wild type HIV-1 IIIB infected in human MT4 cells assessed as protection against virus-induced cytopathic effect. To be noted: MT4 cells, read-out: Ratio CC50/EC50. Type of data set: toxicity, cell-based.
The target of data set [7] is T1, Human immunodeficiency virus type 1 reverse transcriptase. Description: Inhibition of wildtype recombinant HIV-1 Reverse transcriptase incubated for 40 mins by spectrofluorometric analysis.
The test system of data set [8] is Human immunodeficiency virus 1. Kind of data set: Antiviral activity against HIV-1 harboring L100I mutant infected in human MT4 cells assessed as protection against virus-induced cytopathic effect incubated for 5 days by MTT assay. It counts as functional, organism-based. The settings on record: Human immunodeficiency virus 1, MT4, 120 h.
Data set [9] concerns Human immunodeficiency virus 1. Description: Antiviral activity against HIV-1 harboring K103N mutant infected in human MT4 cells assessed as protection against virus-induced cytopathic effect incubated for 5 days by MTT assay. To be noted: Human immunodeficiency virus 1, MT4, 120 h. It counts as functional, organism-based.
For data set [10], the system named is Human immunodeficiency virus 1. Kind of data set: Antiviral activity against HIV-1 harboring Y181C mutant infected in human MT4 cells assessed as protection against virus-induced cytopathic effect incubated for 5 days by MTT assay. Type of data set: functional, organism-based. The settings on record: Human immunodeficiency virus 1, MT4, 120 h.
Data set [11] has as its system Human immunodeficiency virus 1. Kind of data set: Antiviral activity against HIV-1 harboring E138K mutant infected in human MT4 cells assessed as protection against virus-induced cytopathic effect incubated for 5 days by MTT assay. The settings on record: Human immunodeficiency virus 1, MT4, 120 h. It counts as functional, organism-based.

Several values for one entry are separate records, joined by “and”; a condition that tells them apart may be missing. Equal values may be shown once. Some results are limits rather than exact numbers.

For `Cc1cc(-c2ccc(C#N)cc2)cc(C)c1Oc1nc(NC2CCN(Cc3ccc(S(=O)(=O)NCCCO)cc3)CC2)ncc1CO`, the concentration giving a half-maximal response (EC50) in data set [1] came to 0.026 µM; in data set [2], 0.24 µM; in data set [3], 0.114 µM; in [4], 0.268 µM. The cytotoxic concentration (CC50) at 120 h in [5] stood at 6.32 µM. In addition, the selectivity ratio in data set [6] was found to be 247. Besides, the half-maximal inhibitory concentration (IC50) in data set [7] was determined as 0.543 µM.

With `Cc1cc(-c2ccc(C#N)cc2)cc(C)c1Oc1nc(NC2CCN(Cc3ccc([N+](=O)[O-])cc3)CC2)ncc1CO`, the concentration giving a half-maximal response (EC50) in data set [1] was 0.008 µM; in [2], 0.189 µM; in data set [3] it was 0.54 µM; in data set [4], 0.306 µM. Also, the CC50 at 120 h in [5] is 3.23 µM. In data set [6], the selectivity ratio worked out at 381. Besides, the IC50 in [7] came to 0.202 µM.

As for `Cc1cc(-c2ccc(C#N)cc2)cc(C)c1Oc1nc(NC2CCN(Cc3cccc([N+](=O)[O-])c3)CC2)ncc1CO`, the concentration for a half-maximal effect (EC50) is 0.009 µM in [1], 0.167 µM in data set [2], 0.291 µM in data set [3] and 0.646 µM in [4]. For the same compound, in [5], the CC50 at 120 h was 7.36 µM. Moreover, the selectivity ratio in data set [6] amounted to 819. Also, the IC50 in data set [7] was 0.184 µM.

Regarding `Cc1cc(-c2ccc(C#N)cc2)cc(C)c1Oc1nc(NC2CCN(Cc3ccc(C(F)(F)F)cc3)CC2)ncc1CO`, the 50% effective concentration (EC50) in [1] worked out at 0.04 µM; in [2], 0.701 µM; in [3] it was 1.59 µM; in [4] it was 2.6 µM. The CC50 at 120 h in [5] stood at 5.05 µM. The selectivity ratio in [6] amounted to 127.

In data set [1], `Cc1cc(-c2ccc(C#N)cc2)cc(C)c1Oc1nc(NC2CCN(Cc3ccc(C(=O)NCCO)cc3)CC2)ncc1CO` had a concentration giving a half-maximal response (EC50) of 0.014 µM. In data set [5], the cytotoxic concentration (CC50) at 120 h was determined as 16.3 µM. Moreover, in data set [6], the selectivity ratio is 1140.

Regarding `COC(=O)c1ccc(CN2CCC(Nc3ncc(CO)c(Oc4c(C)cc(-c5ccc(C#N)cc5)cc4C)n3)CC2)cc1`, the EC50 is 0.012 µM in data set [1], 0.175 µM in data set [2], 0.175 µM in data set [3] and 0.469 µM in data set [4]. For the same compound, the CC50 at 120 h in [5] was 13.9 µM. Besides, the selectivity ratio in [6] worked out at 1120. The IC50 in [7] was 0.377 µM.

Take `Cc1ccc(CN2CCC(Nc3ncc(CO)c(Oc4c(C)cc(-c5ccc(C#N)cc5)cc4C)n3)CC2)cc1`: the 50% effective concentration (EC50) in data set [1] stood at 0.013 µM; in data set [2], 0.237 µM; in data set [3], 0.81 µM; in [4], 1.12 µM. For the same compound, the CC50 at 120 h in data set [5] was determined as 3.66 µM. The selectivity ratio in data set [6] was found to be 285. Further, the concentration for half-maximal inhibition (IC50) in data set [7] was 0.626 µM.

Turning to `COC(=O)/C=C/c1ccc(CN2CCC(Nc3ncc(CO)c(Oc4c(C)cc(-c5ccc(C#N)cc5)cc4C)n3)CC2)cc1`, the EC50 in data set [1] was 0.007 µM; in [2], 0.213 µM; in data set [3] it was 0.329 µM; in data set [4], 0.357 µM. Also, the cytotoxic concentration (CC50) at 120 h in data set [5] came to 88.3 µM. Besides, the selectivity ratio in data set [6] came out at 13400. Besides, the concentration for half-maximal inhibition (IC50) in [7] came to 0.437 µM.

As to `Cc1ccnc2c1NC(=O)c1cccnc1N2C1CC1` [NEVIRAPINE], the concentration for a half-maximal effect (EC50) in [2] is 9.31 µM; in data set [3], 6.46 µM; in [4], more than 15.3 µM; in [8], 1360 µM; in data set [9], 2.18 µM; in data set [10], 6.92 µM. Further, the 50% cytotoxic concentration (CC50) at 120 h in [5] was more than 15.3 µM.

Turning to `Cc1cc(-c2ccc(C#N)cc2)cc(C)c1Oc1nc(NC2CCN(Cc3ccc(S(=O)(=O)NCCO)cc3)CC2)ncc1CO`, the concentration for a half-maximal effect (EC50) in data set [1] amounted to 0.01 µM; in data set [2], 0.228 µM; in data set [3], 0.069 µM; in data set [4], 0.327 µM. The cytotoxic concentration (CC50) at 120 h in data set [5] amounted to 15.5 µM. In addition, the selectivity ratio in data set [6] was determined as 1630. The IC50 in data set [7] came to 0.413 µM.

For the compound `Cc1cc(-c2ccc(C#N)cc2)cc(C)c1Oc1nc(NC2CCN(Cc3ccc(OC(F)(F)F)cc3)CC2)ncc1CO`, the EC50 in [1] amounted to 0.043 µM; in [2], 0.479 µM; in [3] it was 1.08 µM; in [4] it was 1.26 µM. For the same compound, the 50% cytotoxic concentration (CC50) at 120 h in [5] was 5.96 µM. For the same compound, in data set [6], the selectivity ratio amounted to 140. For the same compound, in [7], the IC50 was 0.375 µM and 0.249 µM.

Regarding `CNC(=O)c1cccc(CN2CCC(Nc3ncc(CO)c(Oc4c(C)cc(-c5ccc(C#N)cc5)cc4C)n3)CC2)c1`, the concentration giving a half-maximal response (EC50) was 0.04 µM in [1], 0.813 µM in data set [2], 5 µM in data set [3] and 5.63 µM in data set [4]. The 50% cytotoxic concentration (CC50) at 120 h in data set [5] came out at 20.2 µM. Moreover, the selectivity ratio in data set [6] was 506. In data set [7], the half-inhibitory concentration (IC50) was found to be 0.305 µM.

For the compound `Cc1cc(-c2ccc(C#N)cc2)cc(C)c1Oc1nc(NC2CCN(Cc3cccc(C(N)=O)c3)CC2)ncc1CO`, the EC50 in data set [1] is 0.008 µM; in data set [2] it was 0.255 µM; in data set [3], 0.271 µM; in data set [4] it was 1.21 µM. Further, in data set [5], the cytotoxic concentration (CC50) at 120 h stood at 18.4 µM. Moreover, the selectivity ratio in [6] is 2230. Also, the 50% inhibitory concentration (IC50) in data set [7] was 0.201 µM.

In the case of `Cc1cc(-c2ccc(C#N)cc2)cc(C)c1Oc1nc(NC2CCN(Cc3ccccc3C#N)CC2)ncc1CO`, the 50% effective concentration (EC50) in data set [1] came to 0.008 µM; in data set [2], 0.2 µM; in data set [3], 0.239 µM; in data set [4] it was 0.409 µM. In addition, the 50% cytotoxic concentration (CC50) at 120 h in [5] amounted to 5.14 µM. Besides, in [6], the selectivity ratio was found to be 628. Moreover, in data set [7], the IC50 came to 0.226 µM.

As to `O=C1Nc2ccc(Cl)cc2[C@@](C#CC2CC2)(C(F)(F)F)O1` [EFAVIRENZ], the 50% effective concentration (EC50) in data set [4] stood at 0.579 µM; in [8], 0.055 µM; in [10], 0.008 µM; in data set [11], 0.01 µM. Also, the CC50 at 120 h in data set [5] was more than 6.35 µM.

`CNC(=O)c1ccc(CN2CCC(Nc3ncc(CO)c(Oc4c(C)cc(-c5ccc(C#N)cc5)cc4C)n3)CC2)cc1`: the 50% effective concentration (EC50) in data set [1] is 0.023 µM; in [2], 0.551 µM; in data set [3], 1.39 µM; in data set [4], 4.69 µM. Further, the CC50 at 120 h in data set [5] turned out to be 28.1 µM. In addition, the selectivity ratio in data set [6] was 1250. In addition, the 50% inhibitory concentration (IC50) in data set [7] was determined as 0.438 µM.

For the compound `Cc1cc(-c2ccncc2)cc(C)c1Oc1nc(NC2CCN(Cc3ccc(C(=O)NCCCO)cc3)CC2)ncc1CO`, in [7], the 50% inhibitory concentration (IC50) came to 0.355 µM.

On to `Cc1cc(-c2ccc(C#N)cc2)cc(C)c1Oc1nc(NC2CCN(Cc3ccc(C(N)=O)cc3)CC2)ncc1CO`, for which the EC50 in data set [1] was found to be 0.007 µM; in data set [2], 0.156 µM; in [3] it was 0.26 µM; in data set [4] it was 0.304 µM. The half-maximal cytotoxic concentration (CC50) at 120 h in [5] was determined as 21.8 µM. In data set [6], the selectivity ratio was 3200. Also, the IC50 in [7] is 0.265 µM.

Consider `Cc1cc(/C=C/C#N)cc(C)c1Nc1ccnc(Nc2ccc(C#N)cc2)n1` [RILPIVIRINE], for which the 50% effective concentration (EC50) turned out to be 0.001 µM in [1] and 0.002 µM in data set [8].

Turning to `Cc1cc(-c2ccc(C#N)cc2)cc(C)c1Oc1nc(NC2CCN(Cc3ccc(F)cc3)CC2)ncc1CO`, the EC50 amounted to 0.009 µM in data set [1], 0.283 µM in data set [2], 0.558 µM in data set [3] and 0.935 µM in data set [4]. The CC50 at 120 h in [5] was determined as 5.68 µM. Further, in data set [6], the selectivity ratio is 629.

For the compound `Cc1cn([C@H]2C[C@H](N=[N+]=[N-])[C@@H](CO)O2)c(=O)[nH]c1=O` [ZIDOVUDINE], the half-maximal effective concentration (EC50) turned out to be 0.027 µM in data set [1]; 0.015 µM in [2]; 0.017 µM in [3]; 0.034 µM in data set [4]; 0.029 µM in [9]; 0.022 µM in data set [10]. Further, the EC50 in [11] stood at 0.032 µM. Moreover, the cytotoxic concentration (CC50) at 120 h in data set [5] is more than 7.49 µM. Besides, the selectivity ratio in [6] is more than 281.

A word on the EC50: it is the midpoint of the concentration-response curve. What is called CC50 is the concentration that lowers cell viability or growth by half. What is called IC50 is the concentration needed to halve the response being measured.
